# Biological target: T1, NMDA receptor glycine site (Rattus norvegicus, UniProt P35439)
# T1 construct: brain membranes bearing the receptor; tissue Analytical Biological Services Inc; host or cells: rat brain (cerebral cortex and hippocampus) membranes
# Test: Test A: Inhibition of binding of [3H]-MDL105,519 to brain membranes
# Settings: not given
# From the text: Test A: Inhibition of Binding of [^3H]-MDL105,519:
# Binding of compounds to the NMDA receptor glycine site may be assessed by measuring the ability of test compounds to inhibit the binding of tritiated MDL105,519 to brain membranes bearing the receptor.
# Briefly, fresh brain tissue including cerebral cortex and hippocampus from male Sprague Dawley rats was homogenized in 0.32 M sucrose and centrifuged at low speed to separate cellular membranes from other cellular components. The membranes were then washed 3 times using deionized water, followed by treatment with 0.04% Triton X-100. Finally, membranes were washed six times in 50 mM Tris citrate buffer, pH 7.4, and frozen at −80° C. until use.
# [^3H]MDL105,519 (72 Ci/mmol) was purchased from Amersham. Cold MDL105,519 was purchased from Sigma/RBI. […] On the day of the experiment, brain membranes were thawed at room temperature and suspended in 50 mM tris acetate buffer, pH 7.4 (“TAB”). Seventy-five micro grams per milliliter protein (by using the BioRad dye) were used for competition binding. The experiments were carried out using 96-well plates. […] Non specific binding was determined by using 100 μM of unlabeled MDL105,519. […] After incubation, unbound [^3H]MDL105,519 was removed by filtration onto GF/B Unifilter plates using a Packard harvester. Filters were washed four times with ice cold TAB (total of 1.2 mL buffer). The plates were dried overnight at room temperature and bound radioactivity was measured on a Packard TopCount after the addition of 45 μL per well of the MICROSCINT O.
# Human Brain Membranes: Human brain membranes were obtained from Analytical Biological Services Inc., and assays were performed as described for rat membranes.
# Data analysis: Data was analyzed using a Microsoft Excel spreadsheet and GraphPad Prizm software and potency of compounds is expressed as the Ki (nM).
row,Ki,SMILES
1,1150 nM,"Cc1ncc(CO)c(Cn2nc(O)c3[nH]c4cc(Cl)ccc4c(=O)c3c2=O)c1O [Ex. 3, 7-Chloro-4-hydroxy-2-[3-hydroxy-5(hydroxymethyl)-2-methyl(4-pyridyl)]methyl-1,2,5,10-tetrahydropyridazino[4,5-b]quinoline-1,10-dione Methanesulfonate]"
2,227 nM,"Cc1cc(C)c(S(=O)(=O)NN=Cc2ccc(Cn3nc(O)c4[nH]c5cc(Cl)ccc5c(=O)c4c3=O)cc2)c(C)c1 [Ex. 11, 2-{[4-(2-Aza-2-{[(2,4,6-trimethylphenyl)sulfonyl]amino}vinyl)phenyl]methyl}-7-chloro-4-hydroxy-2,5-dihydropyridazino[4,5-b]quinoline-1,10-dione]"
3,124 nM,CC(C)(C)OC(=O)NN=Cc1ccc(Cn2nc(O)c3[nH]c4cc(Cl)ccc4c(=O)c3c2=O)cc1 [Ex. 8]
4,95.8 nM,"O=c1c2ccc(Cl)cc2[nH]c2c(O)nn(Cc3ccc(-c4nnco4)cc3)c(=O)c12 [Ex. 1, 7-Chloro-4-hydroxy-2-(4-[1,3,4]oxadiazol-2-yl-benzyl)-1,2,5,10-tetrahydropyridazino[4,5-b]quinoline-1,10-dione]"
5,159 nM,"O=c1c2ccc(Cl)cc2[nH]c2c(O)nn(Cc3ccc(C=NNc4ccccn4)cc3)c(=O)c12 [Ex. 9, 2-{[4-[2-Aza-2-(2-pyridylamino)vinyl]phenyl}methyl)-7-chloro-4-hydroxy-2,5-dihydropyridazino[4,5-b]quinoline-1,10-dione]"
6,91 nM,O=C(NN=Cc1ccc(Cn2nc(O)c3[nH]c4cc(Cl)ccc4c(=O)c3c2=O)cc1)c1ccccc1 [Ex. 10]
7,449 nM,"O=c1c2ccc(Cl)cc2[nH]c2c(O)nn(CC3CCCO3)c(=O)c12 (racemic) [Ex. 4, 7-Chloro-4-hydroxy-2-(tetrahydro-furan-2-ylmethyl)-1,2,5,10-tetrahydropyridazino[4,5-b]quinoline-1,10-dione]"
8,173 nM,"O=Cc1ccc(Cn2nc(O)c3[nH]c4cc(Cl)ccc4c(=O)c3c2=O)cc1 [Ex. 7, 4-[(7-Chloro-4-hydroxy-1,10-dioxo-2.5-dihydropyridazino[4,5-b]quinolin-2-yl)methyl]benzaldehyde]"

# Same assay, conditions: inhibition of 1.2 nM [3H]MDL105,519 binding to brain membranes, 30 minutes at room temperature
row,SMILES,Ki
1,"COc1ccc(-c2nnc(Cn3nc(O)c4[nH]c5cc(Cl)ccc5c(=O)c4c3=O)o2)cc1 [Ex. 5, 7-Chloro-4-hydroxy-2-[5-(4-methoxy-phenyl)-[1,3,4]oxadiazol-2-ylmethyl]-1,2,5,5,10-tetrahydropyridazino[4,5-b]quinoline-1,10-dione]",146 nM
2,"O=c1c2ccc(Cl)cc2[nH]c2c(O)nn(Cc3cccc(-c4nnn[nH]4)c3)c(=O)c12 [Ex. 2, 7-Chloro-4-hydroxy-2-[3-(1H-tetrazol-5-yl)-benzyl]-1,2,5,10-tetrahydropyridazino[4.5-b]quinoline-1,10-dione.]",42.7 nM

# Source: US20050124622A1, “Compounds and methods for the treatment of pain” (priority 1999, published 2005)
